In patent publication US5171835A, “LHRH antagonists” (The Administrators of the Tulane Educational Fund, priority 1991, dated 1992):

How the values were obtained:
[1] = test system: perfused rat pituitary cell system (LH response to LH-RH); assay: LH-RH inhibiting activity in superfused rat pituitary cell system; assay type: cell-based
Protocol: Immediately after that, a mixture containing the same concentration of peptide and 3 nM LHRH is administered for 3 min. This was followed by four consecutive infusions of 3 nM LHRH for 3 min (1 ml perfusate) at 30 min intervals (30, 60, 90, 120 min). LH content of the 1 ml fractions collected is determined by radioimmunoassay (RIA).

[2] = test system: membrane receptors of human breast cancer cells; assay: Receptor binding, human breast cancer cell membranes (125I-[D-Trp6]LHRH as labelled ligand); details: 125I-[D-Trp]6 LHRH labelled ligand; for Affinity Constant Ka 1: NB = no binding
Protocol: Affinity of peptides to rat pituitary and human breast cancer cell membranes is determined by using labelled LHRH and [D-Trp^6 ]LHRH. The assay is carried out similarly to that described by T. Kadar et al., Proc. Natl. Acad. Sci. USA, 85, 890-894 (1988) and M. Fekete et al., Endocrinology, 124, 946-955 (1989).

[3] = test system: ovulation in 4-day-cycling rats; assay: In vivo antiovulatory activity in 4-day-cycling rats; set-up: species or system rat
Protocol: (b) In vivo antiovulatory activity of peptides is determined in 4-day-cycling rats as described [A. Corbin and C. W. Beattie, Endocr. Res. Commun., 2, 1-23 (1975)].

[4] = antagonist to LH-RH ratio 1:1, 0 min
[5] = antagonist to LH-RH ratio 1:1, 30 min
[6] = antagonist to LH-RH ratio 1:1, 60 min
[7] = antagonist to LH-RH ratio 1:1, 90 min
[8] = antagonist to LH-RH ratio 3:1, 0 min
[9] = antagonist to LH-RH ratio 3:1, 30 min
[10] = antagonist to LH-RH ratio 3:1, 60 min
[11] = antagonist to LH-RH ratio 3:1, 90 min

Substance	% inhibition of LH response [1, 4]	% inhibition of LH response [1, 5]	% inhibition of LH response [1, 6]	% inhibition of LH response [1, 7]	% inhibition of LH response [1, 8]	% inhibition of LH response [1, 9]	% inhibition of LH response [1, 10]	Affinity Constant Ka 2 [2]	Affinity Constant Ka 1 [2]	% inhibition of LH response [1, 11]	% Blockade of Ovulation ([3]; dose 0.75 μg)	% Blockade of Ovulation ([3]; dose 1.5 μg)	% Blockade of Ovulation ([3]; dose is 0.375 μg)
Ac-D-Nal(2)-D-Phe(4Cl)-D-Pal(3)-Ser-Arg-D-Lys[A2 pr(Ac)2 ]-Leu-Arg-Pro-D-Ala-NH2 [Peptide 2]	26%	27%	29%	25%	88%	41%	13%	0.32 µM⁻¹	16.35 nM⁻¹	–	–	–	–
Ac-D-Nal(2)-D-Phe(4Cl)-D-Pal(3)-Ser-Arg-D-Lys[A2 pr(Car)2 ]-Leu-Arg-Pro-D-Ala-NH2 [Peptide 1]	80%	46%	31%	–	95%	59%	55%	3.15 µM⁻¹	7.07 nM⁻¹	52%	–	–	–
Ac-D-Nal(2)-D-Phe(4Cl)-D-Pal(3)-Ser-Arg-D-Lys[A2 pr(EtCar)2 ]-Leu-Arg-Pro-D-Ala-NH2 [Peptide 4]	–	–	–	–	91%	50%	42%	0.05 µM⁻¹	9.71 nM⁻¹	41%	–	–	–
Ac-D-Nal(2)-D-Phe(4Cl)-D-Pal(3)-Ser-Arg-D-Lys[A2 pr(For)2 ]-Leu-Arg-Pro-D-Ala-NH2 [Peptide 3]	–	–	–	–	93%	43%	26%	–	–	24%	–	–	–
Ac-D-Nal(2)-D-Phe(4Cl)-D-Pal(3)-Ser-Tyr-D-Lys[A2 pr(CHC)2 ]-Leu-Arg-Pro-D-Ala-NH2 [Peptide 12]	–	–	–	–	–	–	–	3.57 µM⁻¹	1.68 nM⁻¹	–	–	–	–
Ac-D-Nal(2)-D-Phe(4Cl)-D-Pal(3)-Ser-Tyr-D-Lys[A2 pr(EtCar)2 ]-Leu-Arg-Pro-D-Ala-NH2 [Peptide 9]	–	–	–	–	90%	72%	–	8.57 µM⁻¹	30.92 nM⁻¹	–	20%	50%	–
Ac-D-Nal(2)-D-Phe(4Cl)-D-Pal(3)-Ser-Tyr-D-Lys[A2 pr(For)2 ]-Leu-Arg-Pro-D-Ala-NH2 [Peptide 10]	–	–	–	–	–	–	–	2.11 µM⁻¹	48.29 nM⁻¹	–	67%	100%	–
Ac-D-Nal(2)-D-Phe(4Cl)-D-Pal(3)-Ser-Tyr-D-Lys[A2 pr]-Leu-Arg-Pro-D-Ala-NH2 [Peptide 25]	57%	49%	43%	–	85%	69%	62%	1.29 µM⁻¹	3.49 nM⁻¹	57%	–	–	–
Ac-D-Nal(2)-D-Phe(4Cl)-D-Pal(3)-Ser-Tyr-D-Lys[DL-A2 bu(Car)2 ]-Leu-Arg-Pro-D-Ala-NH2 [Peptide 16]	52%	33%	24%	28%	–	–	–	–	–	–	–	33%	–
Ac-D-Nal(2)-D-Phe(4Cl)-D-Pal(3)-Ser-Tyr-D-Lys[DL-A2 bu(For)2 ]-Leu-Arg-Pro-D-Ala-NH2 [Peptide 15]	44%	41%	22%	23%	99%	60%	34%	–	–	21%	–	100%	25%
Ac-D-Nal(2)-D-Phe(4Cl)-D-Pal(3)-Ser-Tyr-D-Lys[DL-A2 bu(LAU)2 ]-Leu-Arg-Pro-D-Ala-NH2 [Peptide 19]	20%	20%	0%	0%	–	–	–	0 µM⁻¹	0 nM⁻¹	–	–	–	–
Ac-D-Nal(2)-D-Phe(4Cl)-D-Pal(3)-Ser-Tyr-D-Lys[DL-A2 bu]-Leu-Arg-Pro-D-Ala-NH2 [Peptide 26]	70%	52%	37%	–	90%	75%	62%	–	–	57%	–	–	–
Ac-D-Nal(2)-D-Phe(4Cl)-D-Trp-Ser-Arg-D-Lys[A2 pr(Ac)2 ]-Leu-Arg-Pro-D-Ala-NH2 [Peptide 23]	–	–	–	–	52%	22%	21%	0.14 µM⁻¹	6.87 nM⁻¹	22%	–	–	–
Ac-D-Nal(2)-D-Phe(4Cl)-D-Trp-Ser-Arg-D-Lys[A2 pr(Car)2 ]-Leu-Arg-Pro-D-Ala-NH2 [Peptide 22]	–	–	–	–	64%	22%	24%	2.67 µM⁻¹	4.09 nM⁻¹	–	–	–	–
Ac-D-Nal(2)-D-Phe(4Cl)-D-Trp-Ser-Arg-D-Lys[A2 pr(For)2 ]-Leu-Arg-Pro-D-Ala-NH2 [Peptide 24]	36%	11%	0%	9%	58%	5%	18%	–	–	27%	–	50%	–
